We go through one substance from patent US6841367B2, “Human receptor tyrosine kinase, KDR” (Merck & Co., Inc., priority 1997, dated 2005).

The test system of this assay is KDR. The assay can be described thus: Tyrosine autophosphorylation of KDRcyt mutants (antiphosphotyrosine Western blot). The format is biochemical, human. The note with it: 1 mM ATP, 37° C., 10 min; Western blot with antiphosphotyrosine antibody PY20 (FIG. 4A). The method, then:
Purified KDRcytE848 and KDRcytV848 were incubated with at concentrations of 12 ng or 120 ng, respectively, or without 1 mM ATP at 37° C. for 10 min. The reaction was stopped by the addition of an equal volume of 2× SDS-PAGE sample buffer and boiled for 5 min. Reaction products were separated by 7.5%/SDS-PAGE and analyzed by Western blot probed with the antiphosphotyrosine antibody PY20 (Transduction Laboratories; FIG. 4A), or an anti-KDR antibody (Santa Cruz Biotechnology; FIG. 4B) visualized using the ECL detection kit and quantified by scanning with a densitometer (Molecular Dynamics).

For “GST-KDRcytV848: GST fusion of the human KDR cytoplasmic tyrosine kinase domain with Val at position 848 (SEQ ID NO:2)”, the autophosphorylation result is given as “resulted in autophosphorylation”.
